# Data as given in patent US10150743B2, “Carboxylic acid compounds” (priority 2012, dated 2018).
# Legend:
# hERG potassium channel = hERG potassium channel (Homo sapiens (Human), UniProt Q12809); assay: hERG Analysis - Method 2 (QPATCH HT, CHO-hERG cells); type: cell-based; conditions: half-maximal inhibition concentration, 22±2° C.
# Description: The hERG potassium current was measured in a hERG-stably-expressing Chinese hamster ovary K1 (CHO) cells. The experiments were performed using an automated planar patch-clamp system QPATCH HT (Sophion Bioscience A/S). The application of pressure for forming gigaseals and whole-cell patch clamp configuration were established using the QPATCH assay software. Patch-clamp experiments were performed in voltage-clamp mode and whole-cell currents were recorded from individual cells. The following stimulation protocol was applied to investigate the effects of compounds on hERG potassium channel: The membrane potential was held at −80 mV and repetitively (every 15 s) depolarized to +20 mV for 5 s after the pulse to −50 mV for 20 ms served to define the baseline, followed by repolarizing step to −50 mV for 5 s to evaluate of the tail current amplitude. Experiments were conducted at room temperature (22±2° C.).
# Effects of compounds were determined from cumulative applications of increasing 4 concentrations and calculated as percent of blocked current. The data points were fitted with Hill equation to calculate half-maximal inhibition concentrations. The test solution includes: Extracellular solution (mM): 2 mM of CaCl2, 1 mM of MgCl2, 10 mM of HEPES, 4 mM of KCl, 145 mM of NaCl, and 10 mM of Glucose; and Intracellular solution (mM): 5.4 mM of CaCl2, 1.8 mM of MgCl2, 10 mM of HEPES, 31 mM of KOH, 10 mM of EGTA, 120 mM of KCl, and 4 mM of ATP.
# CT26 mouse tumour cells = assay: Survival studies in CT26, a murine syngeneic colon carcinoma tumour model; type: in vivo; conditions: Balb/C mice; RT 2Gy x5 plus 5 mg/kg once a week i.v.; vs control or RT; FIG. 13
# Description: Experiments were conducted on female mice (Balb/C genotype, at least 5 weeks old). CT26 mouse tumour cells (CRL-2638) were purchased from ATCC. CT26 mouse tumour cells (1×10^6) were implanted subcutaneously in the flank of mice on day 0. Mice in radiotherapy alone (RT) group and combination group were anesthetized and received radiation therapy (2Gy) at days 7, 8, 9, 10, and 11. Mice in combination group were also treated with a compound of Example 3 (30 mg/kg once a week) administered orally (p.o.) or Example 4 (5 mg/kg once a week) administered intravenously (i. v.) on days 7, 14, 22, and 27. Tumour volumes were assessed at least twice weekly by bilateral vernier caliper measurements. Survival period was determined by the time taken for tumours to reach 4 times the volume at the time of treatment.
# Renca mouse tumour cells = assay: Tumour growth studies in Renca, a murine syngeneic renal carcinoma tumour model; type: in vivo; conditions: Balb/C mice, 3 mg/kg once a week p.o. on days 1, 8, 15; vs 0.5% methylcellulose; FIG. 10
# Description: Experiments were conducted on female mice (Balb/C genotype, at least 5 weeks old). Renca mouse tumour cells (Cancer Chemother Pharmacol. 1995; 36 (1): 7-12) were kindly provided by Dr. T. Fujioka at Department of Urology, Iwate Medical University School of Medicine. Renca mouse tumour cells (5×10^4) were implanted subcutaneously in the flank of mice on day 0. Mice were treated with either drug vehicle (0.5% methylcellulose), the compound of Example 3 (0.3 mg/kg once a week) or the compound of Example 4 (3 mg/kg once a week) administered orally (p. o.) on days 1, 8, and 15. Tumour volumes were assessed at least twice weekly by bilateral vernier caliper measurements.
# Tumour growth inhibition from the start of treatment was assessed by comparison of the differences in tumour growth rate between control and the compound of Example 3 treated groups, as shown in FIG. 9.
# Tumour growth inhibition from the start of treatment was assessed by comparison of the differences in tumour growth rate between control and the compound of the Example 4 treated groups, as shown in FIG. 10.
# human TLR8 = human TLR8 (Homo sapiens (Human), UniProt Q9NR97); assay: Human TLR8 assay (TLR8/NF-kB/SEAPorter HEK 293 Cell Line); type: cell-based; conditions: SEAP induction, overnight incubation at 37° C., 0.1% DMSO; read-out: TLR8 pEC50 (converted)
# human TLR8, sequence (Q9NR97 27-1041): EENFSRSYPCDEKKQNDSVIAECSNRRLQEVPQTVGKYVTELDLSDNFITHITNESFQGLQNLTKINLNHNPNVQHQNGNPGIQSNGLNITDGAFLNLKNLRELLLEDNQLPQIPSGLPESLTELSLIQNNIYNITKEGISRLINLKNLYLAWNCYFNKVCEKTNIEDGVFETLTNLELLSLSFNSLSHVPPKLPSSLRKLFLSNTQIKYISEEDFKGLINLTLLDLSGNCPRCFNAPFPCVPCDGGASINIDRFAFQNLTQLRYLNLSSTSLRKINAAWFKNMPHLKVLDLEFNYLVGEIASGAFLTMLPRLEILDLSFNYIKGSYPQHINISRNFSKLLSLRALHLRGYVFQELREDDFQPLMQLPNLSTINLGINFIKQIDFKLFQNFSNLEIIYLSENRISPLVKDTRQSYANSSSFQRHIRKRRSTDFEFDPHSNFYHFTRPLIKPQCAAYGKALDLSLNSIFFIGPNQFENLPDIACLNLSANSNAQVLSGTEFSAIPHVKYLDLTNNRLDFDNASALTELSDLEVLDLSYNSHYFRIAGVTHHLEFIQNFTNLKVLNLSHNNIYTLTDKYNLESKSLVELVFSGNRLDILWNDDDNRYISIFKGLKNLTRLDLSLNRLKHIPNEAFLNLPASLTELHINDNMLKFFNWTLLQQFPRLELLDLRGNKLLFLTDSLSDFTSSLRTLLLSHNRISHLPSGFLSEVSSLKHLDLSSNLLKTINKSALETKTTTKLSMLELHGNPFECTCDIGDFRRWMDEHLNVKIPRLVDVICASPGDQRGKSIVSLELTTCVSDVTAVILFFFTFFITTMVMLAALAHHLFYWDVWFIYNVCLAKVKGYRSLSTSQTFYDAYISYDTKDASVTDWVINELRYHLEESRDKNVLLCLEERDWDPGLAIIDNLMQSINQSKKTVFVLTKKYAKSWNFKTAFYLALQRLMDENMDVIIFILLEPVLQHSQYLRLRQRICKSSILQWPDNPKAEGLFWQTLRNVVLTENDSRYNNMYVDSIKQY
# Description: TLR8/NF-kB/SEAPorter™ HEK 293 Cell Line (Imgenex Corporation) is a stably co-transfected cell line which expresses full-length human TLR8 and the secreted alkaline phosphatase (SEAP) reporter gene under the transcriptional control of an NF-κB response element. TLR8 expression in this cell line has been tested by flow cytometry. Transfectants with stable expression were selected using the antibiotic blasticidin and geneticin. TLR signaling leads to the translocation of NF-κB and activation of the promoter results in expression of the SEAP gene. TLR8-specific activation was assessed by determining the level of SEAP produced following overnight incubation of the cells at 37° C. with the standard compound in the presence of 0.1% (v/v) dimethylsulfoxide (DMSO). Concentration dependent induction of SEAP production by compounds was expressed as the concentration of compound which produced half of the maximal level of SEAP induction for that compound (EC50).
# human TLR7 = human TLR7 (Homo sapiens (Human), UniProt Q9NYK1); assay: Human TLR7 assay (SEAP reporter in HEK293); type: cell-based; conditions: SEAP induction, overnight incubation at 37° C., 0.1% DMSO; read-out: TLR7 (pEC50) (converted)
# human TLR7, sequence (Q9NYK1 27-1049): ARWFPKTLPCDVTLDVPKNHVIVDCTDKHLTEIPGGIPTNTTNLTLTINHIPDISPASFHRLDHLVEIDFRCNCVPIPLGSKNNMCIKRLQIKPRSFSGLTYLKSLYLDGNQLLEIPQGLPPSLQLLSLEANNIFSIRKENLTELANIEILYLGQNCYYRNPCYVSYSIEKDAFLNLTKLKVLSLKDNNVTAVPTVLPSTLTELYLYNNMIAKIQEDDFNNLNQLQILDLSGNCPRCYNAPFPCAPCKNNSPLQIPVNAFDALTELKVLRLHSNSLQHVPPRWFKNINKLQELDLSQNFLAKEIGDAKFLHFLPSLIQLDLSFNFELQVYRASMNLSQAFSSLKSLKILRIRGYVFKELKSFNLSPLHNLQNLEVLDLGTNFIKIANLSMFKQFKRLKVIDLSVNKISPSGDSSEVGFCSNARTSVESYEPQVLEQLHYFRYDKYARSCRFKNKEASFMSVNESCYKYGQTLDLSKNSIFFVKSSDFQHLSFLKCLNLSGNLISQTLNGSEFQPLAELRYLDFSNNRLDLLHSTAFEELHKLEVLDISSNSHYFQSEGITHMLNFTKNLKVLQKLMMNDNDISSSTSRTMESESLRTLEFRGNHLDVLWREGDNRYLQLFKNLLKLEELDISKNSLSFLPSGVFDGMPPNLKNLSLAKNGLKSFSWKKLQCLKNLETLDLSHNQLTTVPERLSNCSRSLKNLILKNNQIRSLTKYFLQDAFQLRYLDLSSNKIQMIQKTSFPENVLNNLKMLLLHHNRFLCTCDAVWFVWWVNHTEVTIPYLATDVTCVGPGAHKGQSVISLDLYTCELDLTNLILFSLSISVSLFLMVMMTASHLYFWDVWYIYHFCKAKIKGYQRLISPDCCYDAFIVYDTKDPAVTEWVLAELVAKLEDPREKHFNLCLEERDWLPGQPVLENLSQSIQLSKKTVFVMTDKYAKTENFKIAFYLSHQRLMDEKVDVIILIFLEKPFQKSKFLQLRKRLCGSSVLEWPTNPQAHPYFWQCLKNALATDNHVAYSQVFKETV
# Description: Recombinant human TLR7 was stably expressed in a HEK293 cell line already stably expressing the pNiFty2-SEAP reporter plasmid; integration of the reporter gene was maintained by selection with the antibiotic zeocin. The most common variant sequence of human TLR7 (represented by the EMBL sequence AF240467) was cloned into the mammalian cell expression vector pUNO and transfected into this reporter cell-line. Transfectants with stable expression were selected using the antibiotic blasticidin. In this reporter cell-line, expression of secreted alkaline phosphatase (SEAP) is controlled by an NFkB/ELAM-1 composite promoter comprising five NFkB sites combined with the proximal ELAM-1 promoter. TLR signaling leads to the translocation of NFkB and activation of the promoter results in expression of the SEAP gene. TLR7-specific activation was assessed by determining the level of SEAP produced following overnight incubation of the cells at 37° C. with the standard compound in the presence of 0.1% (v/v) dimethylsulfoxide (DMSO). Concentration dependent induction of SEAP production by compounds was expressed as the concentration of compound which produced half of the maximal level of SEAP induction for that compound (EC50).
# hERG potassium channel, sequence (Q12809 whole entry): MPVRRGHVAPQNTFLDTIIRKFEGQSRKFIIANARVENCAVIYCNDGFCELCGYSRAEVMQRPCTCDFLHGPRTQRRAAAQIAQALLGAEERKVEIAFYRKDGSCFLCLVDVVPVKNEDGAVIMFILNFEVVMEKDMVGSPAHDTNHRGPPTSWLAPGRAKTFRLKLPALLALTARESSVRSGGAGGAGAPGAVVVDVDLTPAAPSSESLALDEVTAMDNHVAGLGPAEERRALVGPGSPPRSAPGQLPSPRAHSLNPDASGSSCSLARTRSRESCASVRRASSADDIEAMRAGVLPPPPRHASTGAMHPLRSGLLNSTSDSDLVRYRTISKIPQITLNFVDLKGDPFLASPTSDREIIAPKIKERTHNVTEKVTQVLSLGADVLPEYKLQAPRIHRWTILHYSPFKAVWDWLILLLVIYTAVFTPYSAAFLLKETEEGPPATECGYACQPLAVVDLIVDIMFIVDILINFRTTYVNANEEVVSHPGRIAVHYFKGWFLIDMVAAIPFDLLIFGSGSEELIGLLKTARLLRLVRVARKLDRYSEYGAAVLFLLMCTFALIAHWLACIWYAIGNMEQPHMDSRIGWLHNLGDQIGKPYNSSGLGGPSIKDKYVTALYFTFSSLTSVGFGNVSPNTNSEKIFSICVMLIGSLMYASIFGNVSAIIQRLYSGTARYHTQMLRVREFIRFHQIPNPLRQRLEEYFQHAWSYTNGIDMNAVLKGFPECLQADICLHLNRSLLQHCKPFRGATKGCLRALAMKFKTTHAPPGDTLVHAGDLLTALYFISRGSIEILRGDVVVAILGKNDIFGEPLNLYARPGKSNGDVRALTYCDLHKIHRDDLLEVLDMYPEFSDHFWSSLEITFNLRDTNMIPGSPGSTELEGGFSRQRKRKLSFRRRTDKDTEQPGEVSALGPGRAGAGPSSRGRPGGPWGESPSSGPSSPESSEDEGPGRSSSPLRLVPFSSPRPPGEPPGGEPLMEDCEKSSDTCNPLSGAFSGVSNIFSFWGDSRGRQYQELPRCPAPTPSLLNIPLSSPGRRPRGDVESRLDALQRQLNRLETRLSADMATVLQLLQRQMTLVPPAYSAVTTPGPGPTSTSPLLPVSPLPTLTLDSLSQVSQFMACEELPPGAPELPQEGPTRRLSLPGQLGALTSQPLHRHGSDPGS
structure (smiles),measurement,setting,value
"CCC[C@@H](CCO)Nc1nc(N)nc(C)c1Cc1ccc(CN(CC(=O)O)CC(F)(F)F)cc1OC [Example 4, (S)-2-((4-((2-amino-4-(1-hydroxyhexan-3-ylamino)-6-methylpyrimidin-5-yl)methyl)-3-methoxybenzyl)(2,2,2-trifluoroethyl)amino)acetic acid]",IC50,hERG potassium channel,> 10 µM
same,Survival period (time for tumours to reach 4 times the volume at treatment),CT26 mouse tumour cells,survived significantly longer
same,Tumour growth inhibition,Renca mouse tumour cells,inhibited tumour growth
same,EC50,human TLR8,> 10 µM
same,EC50,human TLR7,0.1 µM
